Values joined by “and” are separate entries in the source; they are usually repeats but may differ in a detail not shown here. Identical values can stand only once.
How the values were obtained:
[1] = test system: cryopreserved mixed gender human hepatocytes; test: Hepatocyte stability assay; assay type: in vitro ADME
Description: Test compounds (5 μM) were incubated with cryopreserved mixed gender human hepatocytes pooled from at least 3 donors. Cell viability of hepatocytes was assessed by a Trypan Blue assay prior to the initiation of the stability assay. The final hepatocyte cell density was 1.5×10^6 viable cells/mL, Samples were taken at 2 time points: 0 and 60 minutes. As positive controls, testosterone (20 μM) and 7-hydroxy-coumarin (100 μM) were incubated and sampled at 5 time points: 0, 15, 30, 60, and 120 minutes. Aliquots were removed and combined (50/50) with acetonitrile to terminate the reaction. Samples were mixed for 10 minutes and centrifuged. The supernatants were transferred to vial for analysis by HRMS. In this assay, both test compound and a des-glycine metabolite (M1) are quantified based on peak area response ratios.
The enzymatic activities of the human cryopreserved hepatocytes used in this study were verified in parallel by determining the disappearance of testosterone (expressed as half-life) and the formation of 7-hydroxycoumarin glucuronide and 7-hydroxycoumarin sulfate (expressed as a formation rate).

[2] = test system: Aspergillus fumigatus-based mouse asthma model; test: Aspergillus fumigatus-based mouse asthma model, lung resistance; assay type: in vivo; conditions: 20 mg/ml, intraperitoneally; for Lung resistance: A. fumigatus insult, day 29
Description: Compounds of the invention were also tested for efficiacy in an asthma model.
A cohort of mice was administered intraperitoneal injections of Aspergillus fumigatus on days 0, 14, 26, 27, and 28. Lung resistance was tested on day 29 immediately following a tracheotomy/methacholine procedure. Animals receiving dexamethasone were administered dexamethasone on days 26, 27 and 28. Animals receiving a compound of the invention were administered the compound just hours before the lung resistance test. As a control, all test compounds, as well as dexamethasone, were also administered to mice in the absence of an A. fumigatus insult.

[3] = test system: Serotonin (5-Hydroxytryptamine) 5-HT1, Non-Selective; test: Assay 271000 radioligand binding, 5-HT1 non-selective; design: species or system Wistar Rat
Description: (§1) The methods employed in this study have been adapted from the scientific literature to maximize reliability and reproducibility. Reference standards were run as an integral part of each assay to ensure the validity of the results obtained. Assays were performed under conditions as described below. Where presented, IC50 values were determined by a non-linear, least squares regression analysis using the Data Analysis Toolbox (MDL Information Systems, San Leandro, Calif., USA). Where inhibition constants (Ki) are presented, the Ki values were calculated using the equation of Cheng and Prusoff (Cheng, Y., Prusoff, W. H., Biochem. Pharmacol. 22:3099-3108, 1973) using the observed IC50 of the tested compound, the concentration of radioligand employed in the assay, and historical values for the KD of the ligand. Where presented, the Hill coefficient (nu), defining the slope of the competitive binding curve, was calculated using the Data Analysis Toolbox.

[4] = target: T1, Serotonin (5-Hydroxytryptamine) 5-HT1A (Homo sapiens, UniProt P08908); test: Radioligand binding, 5-HT1A ([3H] 8-OH-DPAT)
T1 construct: expressed in transfected cells; host or cells: CHO cells
T1 sequence (P08908 1-422): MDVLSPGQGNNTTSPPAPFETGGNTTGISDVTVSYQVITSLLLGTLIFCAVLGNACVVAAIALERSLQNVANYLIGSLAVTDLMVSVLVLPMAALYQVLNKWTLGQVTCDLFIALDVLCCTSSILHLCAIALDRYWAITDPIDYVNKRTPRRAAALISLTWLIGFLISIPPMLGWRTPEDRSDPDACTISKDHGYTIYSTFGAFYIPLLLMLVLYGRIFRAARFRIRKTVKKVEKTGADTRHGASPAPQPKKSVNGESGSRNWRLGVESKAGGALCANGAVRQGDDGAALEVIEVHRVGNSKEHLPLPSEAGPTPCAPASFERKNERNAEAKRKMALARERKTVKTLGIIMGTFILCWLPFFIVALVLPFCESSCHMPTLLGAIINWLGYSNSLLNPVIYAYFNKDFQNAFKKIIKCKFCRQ
Description: as §1

[5] = target: T2, Serotonin (5-Hydroxytryptamine) 5-HT1B (Rattus norvegicus, UniProt P28564); test: Assay 271200 radioligand binding, 5-HT1B; design: species or system Wistar Rat
T2 construct: from tissue
T2 sequence (P28564 whole entry): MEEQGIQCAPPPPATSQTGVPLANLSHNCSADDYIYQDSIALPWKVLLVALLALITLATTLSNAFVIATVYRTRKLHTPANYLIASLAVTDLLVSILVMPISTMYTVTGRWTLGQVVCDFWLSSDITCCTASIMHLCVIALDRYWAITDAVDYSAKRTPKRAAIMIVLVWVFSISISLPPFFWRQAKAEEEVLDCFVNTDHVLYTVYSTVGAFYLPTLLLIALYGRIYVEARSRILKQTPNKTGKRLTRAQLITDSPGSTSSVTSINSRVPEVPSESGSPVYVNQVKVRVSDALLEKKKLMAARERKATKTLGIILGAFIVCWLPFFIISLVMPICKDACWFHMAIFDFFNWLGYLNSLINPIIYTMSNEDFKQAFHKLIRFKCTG
Description: as §1

[6] = test system: Serotonin (5-Hydroxytryptamine) 5-HT2, Non-Selective; test: Assay 271600 radioligand binding, 5-HT2 non-selective; design: species or system Wistar Rat
Description: as §1

[7] = test system: TNF-α; test: Model of LPS-mediated cytokine production, serum TNF-α; assay type: in vivo, CD1:ICR mice; conditions: 10 mg/kg
Description: Both ICI-685 and ICI-735 were formulated in water. For the time course study, both drugs were formulated at a concentration of 1 mg/ml and dosed 10 ml/kg to produce a dose of 10 mg/kg. For the dose-response study, drug was formulated at concentrations of 0.05, 0.2 and 0.5 mg/ml and dosed at a volume of 10 ml/kg to produce doses of 0.5, 2 and 5 mg/kg, respectively. Animals were dosed IV or IP.
CD1:ICR mice were obtained from Harlan (Indianapolis, Ind.) at 6 weeks of age. Animals were housed 5 per cage, kept on a 12 hr light dark cycle and fed food and water ad libitum. Animals were tested at 8-10 weeks of age.
Lipopolysaccharide (heat killed E. coli 0127:B5; Sigma Aldrich) was prepared in distilled water at a concentration of 0.025 mg/ml. LPS was dosed at a volume of 10 ml/kg (IP) to produce a final dose of 0.25 mg/kg (approximately 7.5 μg/mouse). Drugs were dosed prior to LPS administration as indicated elsewhere herein. Blood was collected by retro-orbital eye bleed 90 minutes after LPS administration, Serum was prepared from blood and TNF-α and IL-1β levels were measured by using the OPT-EIA mouse TNF-α and IL-1β ELISA kits (BD Biosciences) as per directions of the manufacturer.
The first study was designed to determine the optimal route of administration and the optimal pre-treatment time. Two pre-dose time course studies were conducted. The first (Study 1A) was conducted with 3 pre-dose time points (2, 6 and 18 hrs). The second was conducted at 0, 1 and 2 hr predose time points. For both studies, drug was dosed IP or IV.
Using data from the first study, a second study was conducted that was designed to measure dose-response activity of each compound. Compounds were tested at doses of […]., 2.0 and 5 mg/kg using the route and pre-treatment time that produced the best activity.
Compounds ICI-715, ICI-824, ICI-953 and ICI-954 were formulated in water. For the time course study, drugs were formulated at a concentration of 1 mg/ml and dosed 10 ml/kg to produce a dose of 10 mg/kg. For the dose-response study, drugs were formulated at concentrations of 0.05, 0.2 and 0.5 mg/ml and dosed at a volume of 10 ml/kg to produce doses of 0.5, 2 and 5 mg/kg, respectively. Animals were dosed IV or IP.
Lipopolysaccharide (heat killed E. coli 0127:B5; Sigma Aldrich) was prepared in distilled water at a concentration of 0.025 mg/ml, LPS was dosed at a volume of 10 ml/kg (IP) to produce a final dose of 0.25 mg/kg (approximately […]). Drugs were dosed prior to LPS administration as indicated above. Blood was collected by retro-orbital eye bleed 90 minutes after LPS administration. Serum was prepared from blood and TNF-α and IL-1β levels were measured by using the OPT-EIA mouse TNF-α and IL-1β ELISA kits (BD Biosciences) as per directions of the manufacturer.
The first study was designed to determine the optimal route of administration and the optimal pre-treatment time. One pre-dose time course was conducted (for all compounds) with compounds administered at 0, 1 and 2 hrs prior to LPS treatment. For both studies, drug was dosed IP or IV. The IP study and IV study were conducted on separate days.
Using data from the first study, a second study was conducted that was designed to measure dose-response activity of each compound. Compounds were tested at doses of 0.5, 2.0 and 5 mg/kg using the route and pre-treatment time that produced the best activity.

[8] = test system: rheumatoid arthritis (RA) animal model; test: Clinical arthritis score in mice sensitized with collagen injections; assay type: in vivo
Description: FIGS. 26-28 illustrate the effect of various compounds of the invention on the clinical arthritis score of mice treated with various compounds of the invention.
Additional testing of the effectiveness of compounds ICI-685, ICI-735 and ICI-847 at higher and lower concentrations were conducted, as illustrated in FIG. 29.

[9] = T = 60 minutes, 5 μM test compound

Row | Compound | Relative Level (%) ([1]; T = 0 minutes, 5 μM test compound) | Peak Areas [1, 9] | Relative Level (%) [1, 9] | susceptibility to the metabolic transformation to the metabolite M1 ([1]; compared with ICI-735) | Lung resistance [2] [cm H2O/ml/s] | % INHIBITION ([3]; 0.1 μM) [%] | % INHIBITION ([3]; 10 μM) [%] | inhibition at 0.1 µM [4] [%] | inhibition at 10 µM [4] [%] | inhibition at 0.1 µM [5] [%] | inhibition at 10 µM [5] [%] | % INHIBITION ([6]; 0.1 μM) [%] | % INHIBITION ([6]; 10 μM) [%] | inhibition at 10 mg/kg ([7]; Mus musculus, second pre-dose time course study, read-out: inhibition of TNFα) [%] | inhibition of TNFα levels ([7]; first time course, 2 hr pretreatment period, IV administration) | inhibition of LPS-stimulated TNFα secretion ([7]; pre-dose time course, IV or IP) | effectiveness at treating RA compared with dexamethasone ([8]; 30 mg/kg, FIG. 29) | clinical arthritis score compared with dexamethasone ([8]; orally 10 mg/kg daily, about 21 days, FIG. 26) | decreasing lung resistance compared with dexamethasone [2]
1 | CC(C)(N)C(=O)NCCN1CCN(CCCN2c3ccccc3Sc3ccc(C(F)(F)F)cc32)CC1 [Compound 36a, 2-Amino-2-methyl-N-(2-(4-(3-(2-(trifluoromethyl)-10H-phenothiazin-10-yl)propyl)piperazin-1-yl)ethyl)propanamide] | 97.3% and 102.8% | 3.42E+06 and 3.82E+06 | 99.0% and 109.1% | less susceptible | – | – | – | – | – | – | – | – | – | – | – | – | – | – | –
2 | C[C@@H]1C[C@H]2[C@@H]3CCC4=CC(=O)C=C[C@]4(C)[C@@]3(F)[C@@H](O)C[C@]2(C)[C@@]1(O)C(=O)CO [Dexamethasone, reference compound] | – | – | – | – | 7.75 | – | – | – | – | – | – | – | – | – | – | – | – | – | –
3 | FC(F)(F)c1ccc2c(c1)N(CCCN1CCNCC1)c1ccccc1S2 [ICI-685] | – | – | – | – | 12 | −3 | 32 | 1 | 26 | 6 | 10 | 31 | 82 | 70 | did not inhibit | inhibited | – | – | –
4 | NCCCN1CCC(CCCN2c3ccccc3Sc3ccc(C(F)(F)F)cc32)CC1 [ICI-847] | – | – | – | – | 7.25 | −11 | −7 | -8 | 74 | -5 | -33 | 3 | 82 | – | – | – | as effective for the length of the study as is dexamethasone | as effective as dexamethasone | at least as effective as dexamethasone

— patent US20120035161A1, “Novel Compositions and Methods of Treating Diseases Using the Same” (CORRIDOR PHARMACEUTICALS, INC., priority 2006, published 2012)
